{
  "source": "patent US20240016946A1",
  "about": "“DRUG-LOADED MACROMOLECULE AND PREPARATION METHOD THEREFOR” (SHANGHAI SENHUI MEDICINE CO., LTD., priority 2020, published 2024)",
  "key": {"[1]": {"system": "platelet (PLT)", "assay": "Effect of single intravenous injection on platelet count in beagle dogs (Test Example 5)", "type": "in vivo", "procedure": "Method of administration: the weight was measured and the dosing amount was calculated based on the weight; the administration regimen is shown in Table 13 below. The drugs were slowly administered by intravenous injection. Blood was collected from the jugular vein or by other suitable means, about 1 mL per sample."}, "[2]": {"assay": "Hematological analysis (complete blood count) in the A549 subcutaneous tumor graft model (Test Example 3)", "protocol": "After the last administration, plasma was collected at the time points designated in Table 7 (EDTA anticoagulant tubes were used (the esterase inhibitor DDVP was added at the time of blood collection)). After plasma collection at the last time point was complete, the mice were euthanized, and tumors were collected, snap frozen and stored."}, "[3]": {"assay": "Pharmacokinetic study, single intravenous injection to rats (Test Example 1)", "type": "in vivo, SD rats", "procedure": "• (1) Preparation of docetaxel: commercially available docetaxel injection (0.5 mL:20 mg) was diluted to 4 mg/mL with normal saline; • (2) Preparation of other test compounds: the compounds were dissolved in DMSO with a final concentration of 5%, and the solutions were diluted to 4 mg/mL with normal saline.\nFemale SD rats, weighing 160-180 g, 6 weeks old, SPF\nPlasma samples were separated, and the esterase inhibitor DDVP was added. The samples were stored at −80° C. and tested for docetaxel level (N=3)."}, "[4]": {"assay": "Pharmacokinetic study, single intravenous injection to beagle dogs, docetaxel macromolecules (Test Example 2)", "type": "in vivo", "details": "single IV 3 mg/kg, free docetaxel in plasma, mean (1 male + 1 female)", "procedure": "Docetaxel (84 mg/vial, commercially available) was dissolved in 5% (final volume) DMSO+30% PEG300+5% Tween 80+60% deionized water to obtain 0.6 mg/mL formulations for intravenous injection.\nBeagle dogs, non-naïve, sourced from Medicilon: 999M-004.\nMethod of administration: the weight was measured and the dosing amount was calculated based on the weight. The drugs were slowly administered by intravenous injection. Blood was collected from the jugular vein or by other suitable means, about 1 mL per sample. Plasma samples were collected before administration and at different time points after administration and tested for free docetaxel level in plasma. For the docetaxel group, collection was performed before administration and at 0.083 h, 0.5 h, 1 h, 2 h, 4 h, 6 h, 8 h and 24 h after administration."}, "[5]": {"system": "human lung cancer cell A549", "assay": "Antitumor effect in subcutaneous tumor graft model of human lung cancer cell A549 (Test Example 3)", "type": "in vivo, BALB/C nude mice", "details": "for Tumor volume: i.v. QW × 4 doses, docetaxel 20, 1-Z00 20, 1-Z00-J 10 mg/kg", "procedure": "Samples are prepared according to Table 5 below.\nBALB/C nude mice, female, 6-7 week old (the age when tumor cell inoculation was performed), weighing 16.5-22.6 g, purchased from GemPharmatech Co., Ltd., certificate No. 320727210100243463. Housing environment: SPF.\nA549 cells (National Collection of Authenticated Cell Cultures/Cell Bank of Shanghai Institutes for Biological Sciences (cellbank.org.cn, SIBS)) were cultured in an F12K medium (Gibco) containing 10% fetal bovine serum. Cells were collected when growing at the exponential phase and resuspended in PBS to a suitable concentration for use in subcutaneous tumor inoculation in mice.\n5×10^6 A549 cells were subcutaneously inoculated into the right side of female mice (inoculation volume: 0.1 mL/mouse). The day of inoculation was defined as day 0. When the mean tumor volume was 142.96 mm^3 (on day 13 after cell inoculation), the mice were randomly grouped according to tumor size as shown in Table 6 below (dosing volume: 10 μL/g).\nAfter tumor inoculation, routine monitoring items included the effect of tumor growth and treatment on the normal behavior of animals, including activity, food intake and water intake, weight gain or loss (body weight was measured twice a week), abnormalities in eyes, hair, etc. Clinical symptoms observed during the experiment were all recorded in the raw data. Tumor volume calculation formula: tumor volume (mm^3)=½×(a×b^2) (where a represents long diameter and b represents short diameter). In the experiment, data collection, including measurement of tumors' long and short diameters and animals' body weight, was performed using StudyDirector™ (version: 3.1.399.19; supplier: Studylog System, Inc., S. San Francisco, CA, USA) software. Raw data measured by scales and vernier calipers were directly imported into the software. Any changes in the data were recorded in the software.\nWhen the body weight of an individual animal decreased by >20%, it was euthanized according to animal welfare.\nRelative tumor proliferation rate, T/C (%), refers to the percentage value of the relative tumor volume or tumor weight of the treatment group and the control group at a certain time point. The calculation formula is: T/C %=TRTV/CRTV×100% (TRTV: mean RTV of treatment group; CRTV: mean RTV of control group; RTV=Vt/V0, V0 is the tumor volume of the animal at the time of grouping, and Vt is the tumor volume of the animal after treatment).\nAll the results are expressed as mean tumor volume±SEM (standard error of the mean). The best point of drug treatment (usually after the last administration) was selected for statistical analysis between different groups. A two-way ANOVA was used to determine whether there was a significant difference in tumor volume between a treatment group and the control group. p<0.05 indicates a significant difference. Statistical analysis and graphing were both performed in the R language environment (version 3.3.1). All tests were two-tailed unless otherwise specified. A p value less than 0.05 was considered statistically significant."}, "[6]": {"details": "A549 tumor-bearing mice after last administration, docetaxel 20, 1-Z00 20, 1-Z00-J 10 mg/kg i.v., mean ± standard deviation"}, "[7]": {"details": "female SD rats, single IV 10 mg/kg, docetaxel level in plasma, N=3"}, "[8]": {"details": "rat, female SD rats, single IV 10 mg/kg, docetaxel level in plasma, N=3"}, "[9]": {"details": "day 21 after administration began, docetaxel 20, 1-Z00 20, 1-Z00-J 10 mg/kg i.v. QW × 4"}},
  "note": "Values joined by “and” are separate entries in the source; they are usually repeats but may differ in a detail not shown here. Equal entries are not always repeated.",
  "data": [
    {"smiles": "O=C(NS(=O)(=O)c1ccc(N[C@@H](CSc2ccccc2)C[C@@H]2CCCN2CCO)c(S(=O)(=O)C(F)(F)F)c1)c1ccc(N2CCC([C@@H](O)c3ccccc3-c3ccc(Cl)cc3)CC2)cc1", "note": "[Compound 3]", "values": [
      {"measurement": "Day 2 (24 h after administration) PLT mean value", "setting": "[1]; beagle dogs, 24 h after single IV 3 mg/kg, mean", "result": "34.00 10^9/L"},
      {"measurement": "Day 1 (before administration) PLT mean value", "setting": "[1]; beagle dogs, before single IV 3 mg/kg (baseline), mean", "result": "355.00 10^9/L"},
      {"measurement": "Difference (%) between PLT count in dogs at 24 h after administration and that before administration", "setting": "[1]; beagle dogs, single IV 3 mg/kg", "result": "−90.42", "unit": "%"},
      {"measurement": "mortality (animals died)", "setting": "[1]; beagle dogs, single IV 3 mg/kg, 3 dogs with compound 3, 2 dogs per dendrimer", "result": 2},
      {"measurement": "Day 2 (24 h after administration) PLT", "setting": "[1]; individual male beagle dog, 24 h after single IV 3 mg/kg", "result": "34.00 10^9/L"},
      {"measurement": "Day 1 (before administration) PLT", "setting": "[1]; individual male beagle dog, before single IV 3 mg/kg (baseline)", "result": "355.00 10^9/L"}
    ]},
    {"smiles": "CC(=O)O[C@@]12CO[C@@H]1C[C@H](O)[C@@]1(C)C(=O)[C@H](O)C3=C(C)[C@@H](OC(=O)[C@H](O)[C@@H](NC(=O)OC(C)(C)C)c4ccccc4)C[C@@](O)([C@@H](OC(=O)c4ccccc4)[C@H]21)C3(C)C", "note": "[Docetaxel]", "values": [
      {"measurement": "decrease of white blood cells, lymphocytes and mononuclear cells compared to the vehicle control group (factor)", "setting": "[2]; 20 mg/kg i.v.", "result": "2-3"},
      {"measurement": "Eosinophil EO#", "setting": "[2]; [6]", "result": "0.02 ± 0.02 10^9/L"},
      {"measurement": "Lymphocyte LYMPH#", "setting": "[2]; [6]", "result": "1.58 ± 0.39 10^9/L"},
      {"measurement": "Mononuclear cell MONO#", "setting": "[2]; [6]", "result": "0.11 ± 0.02 10^9/L"},
      {"measurement": "Neutrophil NEUT#", "setting": "[2]; [6]", "result": "0.81 ± 0.47 10^9/L"},
      {"measurement": "White blood cell count WBC", "setting": "[2]; [6]", "result": "2.52 ± 0.08 10^9/L"},
      {"measurement": "AUMC0-inf", "setting": "[3]; [7]", "result": 2663.5, "unit": "h · h · ng · mL^−1"},
      {"measurement": "AUMC0-t", "setting": "[3]; [7]", "result": 1669.3, "unit": "h · h · ng · mL^−1"},
      {"measurement": "Kel", "setting": "[3]; [7]", "result": 0.3, "unit": "h⁻¹"},
      {"measurement": "MRTIV", "setting": "[3]; [7]", "result": 1.8, "unit": "h"},
      {"measurement": "AUC(0-inf)", "setting": "[3]; [8]", "result": 1480, "unit": "ng·h/mL"},
      {"measurement": "AUC(0-t)", "setting": "[3]; [8]", "result": 1400, "unit": "ng·h/mL"},
      {"measurement": "C0", "setting": "[3]; [8]", "result": 2840, "unit": "ng/mL"},
      {"measurement": "Cmax", "setting": "[3]; [8]", "result": 1990, "unit": "ng/mL"},
      {"measurement": "clearance", "setting": "[3]; [8]", "result": 116, "unit": "mL/min/kg"},
      {"measurement": "half-life", "setting": "[3]; [8]", "result": 2.1, "unit": "h"},
      {"measurement": "Vd", "setting": "[3]; rat, female SD rats, single IV 10 mg/kg, docetaxel level in plasma, N=3, read-out: VdSS", "result": 12.1, "unit": "L/kg"},
      {"measurement": "sustained-release effect, exposure and clearance (conclusion in words)", "setting": "[3]; rats, IV 10 mg/kg", "result": "rapid plasma clearance and low exposure"},
      {"measurement": "AUC(0-inf)", "setting": "[4]; both sexes, dog", "result": 2040, "unit": "ng·h/mL"},
      {"measurement": "AUC(0-t)", "setting": "[4]; both sexes, dog", "result": 1890, "unit": "ng·h/mL"},
      {"measurement": "clearance", "setting": "[4]; both sexes, dog", "result": 24.6, "unit": "mL/min/kg"},
      {"measurement": "half-life", "setting": "[4]; both sexes, dog", "result": 13.5, "unit": "h"},
      {"measurement": "Vd", "setting": "[4]; both sexes, dog, read-out: Vdss", "result": 7.39, "unit": "L/kg"},
      {"measurement": "AUMC0-inf", "setting": "[4]", "result": 10234, "unit": "h·h·ng·mL^−1"},
      {"measurement": "AUMC0-t", "setting": "[4]", "result": 3854, "unit": "h·h·ng·mL^−1"},
      {"measurement": "Kel", "setting": "[4]", "result": 0.0515, "unit": "h⁻¹"},
      {"measurement": "Mean residence time (MRT)", "setting": "[4]", "result": 5.02, "unit": "h"},
      {"measurement": "Tumor volume", "setting": "[5]; day 0 after administration began (baseline at grouping), mean ± standard error", "result": "142.49 ± 6.17", "unit": "mm^3"},
      {"measurement": "Tumor volume", "setting": "[5]; day 3 after administration began, mean ± standard error", "result": "187.27 ± 18.12", "unit": "mm^3"},
      {"measurement": "Tumor volume", "setting": "[5]; day 7 after administration began, mean ± standard error", "result": "294.09 ± 32.19", "unit": "mm^3"},
      {"measurement": "Tumor volume", "setting": "[5]; day 10 after administration began, mean ± standard error", "result": "362.73 ± 41.13", "unit": "mm^3"},
      {"measurement": "Tumor volume", "setting": "[5]; day 14 after administration began, mean ± standard error", "result": "460.59 ± 68.72", "unit": "mm^3"},
      {"measurement": "Tumor volume", "setting": "[5]; day 17 after administration began, mean ± standard error", "result": "502.25 ± 84.97", "unit": "mm^3"},
      {"measurement": "T/C (relative tumor proliferation rate)", "setting": "[5]; [9]", "result": 33.76, "unit": "%"},
      {"measurement": "TGI (relative tumor inhibition)", "setting": "[5]; [9]", "result": 66.24, "unit": "%"},
      {"measurement": "Relative tumor volume", "setting": "[5]; day 21 after administration began, docetaxel 20, 1-Z00 20, 1-Z00-J 10 mg/kg i.v. QW × 4, mean ± standard error", "result": "3.87 ± 0.61"},
      {"measurement": "Tumor volume", "setting": "[5]; day 21 after administration began, mean ± standard error", "result": "564.93 mm^3 and 564.93 ± 108.61 mm^3"}
    ]}
  ]
}
